Test results as given in the kinase profiling compilation of Christmann-Franck et al. (2016).

Columns and labels:
Assay in all cases: radiometric filter-binding kinase assay, Kinase HotSpot
Settings in all cases: compound 0.5 µM; ATP 10 µM
ULK1 (human) = ULK1 (human) (UniProt O75385)
EPHB3 (human) = EPHB3 (human) (UniProt P54753)
CDK5 CDK5R1 p35 (human) = CDK5 CDK5R1 p35 (human) (UniProt Q00535+Q15078)
MAP3K10 (human) = MAP3K10 (human) (UniProt Q02779)
RPS6KA3 KD1 KD2 (human) = RPS6KA3 KD1 KD2 (human) (UniProt P51812)
BRSK2 (human) = BRSK2 (human) (UniProt Q8IWQ3)
LTK (human) = LTK (human) (UniProt P29376)
CDK2 CCNA2 (human) = CDK2 CCNA2 (human) (UniProt P24941+P20248)
EPHA6 (human) = EPHA6 (human) (UniProt Q9UF33)
BRSK1 (human) = BRSK1 (human) (UniProt Q8TDC3)
INSRR (human) = INSRR (human) (UniProt P14616)
PHKG1 (human) = PHKG1 (human) (UniProt Q16816)
Chain of PHKG1 (human) (Q16816 whole entry, looked up): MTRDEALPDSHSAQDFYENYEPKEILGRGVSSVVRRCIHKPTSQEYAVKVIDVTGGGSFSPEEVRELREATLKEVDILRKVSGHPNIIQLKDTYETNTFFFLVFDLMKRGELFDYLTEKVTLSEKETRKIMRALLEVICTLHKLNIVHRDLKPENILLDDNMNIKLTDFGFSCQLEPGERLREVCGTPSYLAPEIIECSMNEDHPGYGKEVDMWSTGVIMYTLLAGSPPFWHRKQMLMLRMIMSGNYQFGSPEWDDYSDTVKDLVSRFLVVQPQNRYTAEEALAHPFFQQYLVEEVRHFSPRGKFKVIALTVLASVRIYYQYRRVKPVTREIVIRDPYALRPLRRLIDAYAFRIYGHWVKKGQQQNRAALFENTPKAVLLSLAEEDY

MAPKAPK3 (human) = MAPKAPK3 (human) (UniProt Q16644)
MAP4K2 (human) = MAP4K2 (human) (UniProt Q12851)
Chain of MAP4K2 (human) (Q12851 whole entry, looked up): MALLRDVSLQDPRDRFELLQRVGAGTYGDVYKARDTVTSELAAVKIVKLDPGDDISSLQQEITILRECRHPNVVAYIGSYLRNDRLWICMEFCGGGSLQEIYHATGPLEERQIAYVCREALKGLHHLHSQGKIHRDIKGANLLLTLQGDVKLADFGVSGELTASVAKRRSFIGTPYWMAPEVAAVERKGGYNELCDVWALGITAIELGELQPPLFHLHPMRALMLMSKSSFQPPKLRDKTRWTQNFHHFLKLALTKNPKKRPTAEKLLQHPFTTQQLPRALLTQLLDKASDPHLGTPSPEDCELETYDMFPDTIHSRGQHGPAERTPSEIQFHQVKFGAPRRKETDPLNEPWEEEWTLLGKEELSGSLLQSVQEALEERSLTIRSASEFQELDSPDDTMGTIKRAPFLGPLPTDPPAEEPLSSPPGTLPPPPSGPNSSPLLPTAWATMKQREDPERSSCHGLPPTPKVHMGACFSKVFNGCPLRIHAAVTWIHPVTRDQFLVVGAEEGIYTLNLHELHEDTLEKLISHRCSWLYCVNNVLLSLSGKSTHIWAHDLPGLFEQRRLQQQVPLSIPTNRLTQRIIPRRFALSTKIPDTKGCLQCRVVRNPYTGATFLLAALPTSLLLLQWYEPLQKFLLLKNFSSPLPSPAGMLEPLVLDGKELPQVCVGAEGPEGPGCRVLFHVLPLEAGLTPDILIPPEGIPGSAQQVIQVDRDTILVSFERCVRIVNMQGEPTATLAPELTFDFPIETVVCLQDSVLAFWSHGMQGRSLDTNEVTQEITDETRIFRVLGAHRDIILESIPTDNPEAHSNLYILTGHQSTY

FGFR3 (human) = FGFR3 (human) (UniProt P22607)
MYLK2 (human) = MYLK2 (human) (UniProt Q9H1R3)
Chain of MYLK2 (human) (Q9H1R3 whole entry, looked up): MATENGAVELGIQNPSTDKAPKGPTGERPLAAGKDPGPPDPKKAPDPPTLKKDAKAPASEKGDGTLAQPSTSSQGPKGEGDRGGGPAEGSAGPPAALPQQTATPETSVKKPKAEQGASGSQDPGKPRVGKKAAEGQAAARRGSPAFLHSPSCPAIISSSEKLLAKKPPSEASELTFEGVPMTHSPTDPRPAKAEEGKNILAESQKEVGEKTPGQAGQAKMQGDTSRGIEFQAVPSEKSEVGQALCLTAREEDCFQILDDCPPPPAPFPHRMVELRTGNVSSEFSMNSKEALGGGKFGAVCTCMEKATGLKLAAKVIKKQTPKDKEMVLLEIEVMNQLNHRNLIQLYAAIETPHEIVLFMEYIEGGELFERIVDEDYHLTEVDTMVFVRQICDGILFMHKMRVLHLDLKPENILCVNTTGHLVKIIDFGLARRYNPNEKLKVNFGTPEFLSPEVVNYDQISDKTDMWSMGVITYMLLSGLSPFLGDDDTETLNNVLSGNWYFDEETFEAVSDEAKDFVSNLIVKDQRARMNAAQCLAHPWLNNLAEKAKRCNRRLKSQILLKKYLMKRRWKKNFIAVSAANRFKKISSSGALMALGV

MAP2K1 (human) = MAP2K1 (human) (UniProt Q02750)
CSF1R (human) = CSF1R (human) (UniProt P07333)
CAMKK2 (human) = CAMKK2 (human) (UniProt Q96RR4)
Chain of CAMKK2 (human) (Q96RR4 whole entry, looked up): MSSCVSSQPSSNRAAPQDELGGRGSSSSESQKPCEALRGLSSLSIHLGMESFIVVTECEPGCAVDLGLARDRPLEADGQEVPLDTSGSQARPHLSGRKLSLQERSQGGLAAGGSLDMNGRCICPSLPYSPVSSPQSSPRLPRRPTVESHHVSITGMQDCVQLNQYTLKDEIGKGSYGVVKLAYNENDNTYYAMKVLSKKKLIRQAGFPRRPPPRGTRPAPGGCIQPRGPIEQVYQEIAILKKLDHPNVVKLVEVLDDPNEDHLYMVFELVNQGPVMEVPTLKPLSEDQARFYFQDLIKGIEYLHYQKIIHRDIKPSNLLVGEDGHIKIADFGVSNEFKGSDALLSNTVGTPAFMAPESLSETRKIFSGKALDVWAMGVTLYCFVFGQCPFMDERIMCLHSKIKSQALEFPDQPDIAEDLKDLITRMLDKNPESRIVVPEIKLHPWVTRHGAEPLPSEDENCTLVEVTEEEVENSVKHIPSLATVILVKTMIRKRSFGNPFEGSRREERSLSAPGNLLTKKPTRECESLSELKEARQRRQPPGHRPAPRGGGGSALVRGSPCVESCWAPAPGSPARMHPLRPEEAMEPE

FRK (human) = FRK (human) (UniProt P42685)
PIM2 (human) = PIM2 (human) (UniProt Q9P1W9)
CLK2 (human) = CLK2 (human) (UniProt P49760)
Chain of CLK2 (human) (P49760 whole entry, looked up): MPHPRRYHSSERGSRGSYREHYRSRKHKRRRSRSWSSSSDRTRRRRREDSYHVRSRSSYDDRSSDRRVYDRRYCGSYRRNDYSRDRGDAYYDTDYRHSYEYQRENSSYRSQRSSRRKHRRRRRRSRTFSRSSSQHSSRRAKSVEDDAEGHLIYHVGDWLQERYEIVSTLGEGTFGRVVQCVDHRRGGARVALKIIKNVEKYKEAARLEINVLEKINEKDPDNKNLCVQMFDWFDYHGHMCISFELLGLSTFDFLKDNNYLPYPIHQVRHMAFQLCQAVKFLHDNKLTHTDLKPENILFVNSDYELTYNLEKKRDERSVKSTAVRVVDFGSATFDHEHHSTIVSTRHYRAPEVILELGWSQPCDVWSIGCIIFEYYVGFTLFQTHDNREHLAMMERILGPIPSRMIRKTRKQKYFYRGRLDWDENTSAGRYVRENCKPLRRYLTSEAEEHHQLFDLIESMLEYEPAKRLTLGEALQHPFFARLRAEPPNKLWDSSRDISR

ACVRL1 (human) = ACVRL1 (human) (UniProt P37023)
RPS6KA1 KD1 KD2 (human) = RPS6KA1 KD1 KD2 (human) (UniProt Q15418)
LRRK2 (human) = LRRK2 (human) (UniProt Q5S007)
EPHB2 (human) = EPHB2 (human) (UniProt P29323)
GSK3A (human) = GSK3A (human) (UniProt P49840)
NEK9 (human) = NEK9 (human) (UniProt Q8TD19)
MAP2K2 (human) = MAP2K2 (human) (UniProt P36507)
CDC42BPA (human) = CDC42BPA (human) (UniProt Q5VT25)
STK16 (human) = STK16 (human) (UniProt O75716)
Chain of STK16 (human) (O75716 whole entry, looked up): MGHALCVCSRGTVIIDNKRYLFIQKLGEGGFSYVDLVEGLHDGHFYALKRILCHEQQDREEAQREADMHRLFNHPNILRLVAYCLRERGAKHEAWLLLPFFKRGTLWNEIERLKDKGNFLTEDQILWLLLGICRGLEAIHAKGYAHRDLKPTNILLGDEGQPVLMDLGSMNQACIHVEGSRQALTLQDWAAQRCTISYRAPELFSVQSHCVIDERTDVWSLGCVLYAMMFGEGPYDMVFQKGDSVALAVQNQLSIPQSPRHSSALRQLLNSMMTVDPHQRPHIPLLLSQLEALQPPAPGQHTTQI

MAPK13 (human) = MAPK13 (human) (UniProt O15264)
MARK3 (human) = MARK3 (human) (UniProt P27448)
Chain of MARK3 (human) (P27448 whole entry, looked up): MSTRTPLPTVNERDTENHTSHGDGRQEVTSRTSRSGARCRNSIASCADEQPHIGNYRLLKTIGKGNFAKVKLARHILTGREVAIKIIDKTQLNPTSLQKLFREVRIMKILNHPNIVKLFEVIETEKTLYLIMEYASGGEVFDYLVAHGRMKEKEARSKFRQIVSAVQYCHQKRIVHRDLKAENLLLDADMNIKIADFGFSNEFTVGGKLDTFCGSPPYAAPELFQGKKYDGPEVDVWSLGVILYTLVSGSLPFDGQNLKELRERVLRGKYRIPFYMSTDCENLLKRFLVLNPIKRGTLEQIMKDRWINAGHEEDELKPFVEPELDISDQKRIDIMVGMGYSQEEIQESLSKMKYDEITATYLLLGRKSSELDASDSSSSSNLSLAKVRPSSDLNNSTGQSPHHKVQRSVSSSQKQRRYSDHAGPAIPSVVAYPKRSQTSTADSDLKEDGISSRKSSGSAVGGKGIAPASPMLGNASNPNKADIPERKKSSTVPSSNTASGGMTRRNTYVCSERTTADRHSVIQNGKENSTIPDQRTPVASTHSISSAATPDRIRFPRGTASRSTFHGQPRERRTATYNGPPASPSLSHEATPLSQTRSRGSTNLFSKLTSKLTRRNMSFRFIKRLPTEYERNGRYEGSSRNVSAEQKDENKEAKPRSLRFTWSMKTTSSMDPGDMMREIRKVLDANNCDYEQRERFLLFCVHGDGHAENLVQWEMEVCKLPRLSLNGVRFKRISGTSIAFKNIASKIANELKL

DCLK2 (human) = DCLK2 (human) (UniProt Q8N568)
EPHA1 (human) = EPHA1 (human) (UniProt P21709)
BLK (human) = BLK (human) (UniProt P51451)
PASK (human) = PASK (human) (UniProt Q96RG2)
PAK6 (human) = PAK6 (human) (UniProt Q9NQU5)
DSTYK (human) = DSTYK (human) (UniProt Q6XUX3)
ULK2 (human) = ULK2 (human) (UniProt Q8IYT8)
AKT1 (human) = AKT1 (human) (UniProt P31749)
PRKACA (human) = PRKACA (human) (UniProt P17612)

Chain of MAP3K10 (human) (Q02779 whole entry, looked up): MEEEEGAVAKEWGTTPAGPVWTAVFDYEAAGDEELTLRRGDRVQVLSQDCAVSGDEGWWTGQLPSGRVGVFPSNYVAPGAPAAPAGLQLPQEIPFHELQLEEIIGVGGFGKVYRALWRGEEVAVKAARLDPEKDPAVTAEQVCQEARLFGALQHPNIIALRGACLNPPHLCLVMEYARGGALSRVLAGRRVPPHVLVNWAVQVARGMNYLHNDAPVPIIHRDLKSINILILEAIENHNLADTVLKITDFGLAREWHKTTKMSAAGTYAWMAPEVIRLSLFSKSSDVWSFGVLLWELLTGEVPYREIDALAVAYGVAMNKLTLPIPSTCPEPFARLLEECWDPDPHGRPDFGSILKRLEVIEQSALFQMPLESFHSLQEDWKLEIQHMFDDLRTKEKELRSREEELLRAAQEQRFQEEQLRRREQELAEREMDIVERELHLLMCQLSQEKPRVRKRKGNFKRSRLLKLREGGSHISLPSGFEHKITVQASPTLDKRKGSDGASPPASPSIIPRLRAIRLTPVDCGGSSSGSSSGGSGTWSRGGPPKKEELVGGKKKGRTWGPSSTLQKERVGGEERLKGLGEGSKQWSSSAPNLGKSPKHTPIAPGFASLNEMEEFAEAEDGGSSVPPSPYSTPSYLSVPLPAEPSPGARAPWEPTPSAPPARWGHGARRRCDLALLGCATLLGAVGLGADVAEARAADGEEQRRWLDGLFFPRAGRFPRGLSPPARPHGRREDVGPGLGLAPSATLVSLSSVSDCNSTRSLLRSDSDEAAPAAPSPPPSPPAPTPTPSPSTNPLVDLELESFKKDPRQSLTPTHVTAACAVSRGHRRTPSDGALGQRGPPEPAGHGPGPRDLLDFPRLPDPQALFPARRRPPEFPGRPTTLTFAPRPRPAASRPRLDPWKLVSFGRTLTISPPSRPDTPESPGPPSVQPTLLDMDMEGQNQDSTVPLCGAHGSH

CC(C)N(CCC(=O)c1ccc2ccccc2c1)Cc1ccccc1
residual activity (ULK1 (human)): 104% | residual activity (EPHB3 (human)): 88.5% | residual activity (CDK5 CDK5R1 p35 (human)): 103% | residual activity (MAP3K10 (human)): 92.6% | residual activity (RPS6KA3 KD1 KD2 (human)): 95.1% | residual activity (BRSK2 (human)): 103% | residual activity (LTK (human)): 103% | residual activity (CDK2 CCNA2 (human)): 109% | residual activity (EPHA6 (human)): 93.3% | residual activity (BRSK1 (human)): 98% | residual activity (INSRR (human)): 90.1% | residual activity (PHKG1 (human)): 91.6% | residual activity (MAPKAPK3 (human)): 95.7% | residual activity (MAP4K2 (human)): 98.3% | residual activity (FGFR3 (human)): 99.8% | residual activity (MYLK2 (human)): 100% | residual activity (MAP2K1 (human)): 82.5% | residual activity (CSF1R (human)): 98.6% | residual activity (CAMKK2 (human)): 85.2% | residual activity (FRK (human)): 95.8% | residual activity (PIM2 (human)): 104% | residual activity (CLK2 (human)): 96.3% | residual activity (ACVRL1 (human)): 107% | residual activity (RPS6KA1 KD1 KD2 (human)): 97.6% | residual activity (LRRK2 (human)): 98.2% | residual activity (EPHB2 (human)): 102% | residual activity (GSK3A (human)): 98.8% | residual activity (NEK9 (human)): 96.4% | residual activity (MAP2K2 (human)): 92.5% | residual activity (CDC42BPA (human)): 99.4% | residual activity (STK16 (human)): 91.6% | residual activity (MAPK13 (human)): 96.2% | residual activity (MARK3 (human)): 101% | residual activity (DCLK2 (human)): 98.3% | residual activity (EPHA1 (human)): 92.4% | residual activity (BLK (human)): 106% | residual activity (PASK (human)): 97.3% | residual activity (PAK6 (human)): 116% | residual activity (DSTYK (human)): 84.9% | residual activity (ULK2 (human)): 113% | residual activity (AKT1 (human)): 100%

CCN(CC)CCNC(=O)c1c(C)[nH]c(/C=C2\C(=O)Nc3ccc(F)cc32)c1C
residual activity (ULK1 (human)): 16.3% | residual activity (EPHB3 (human)): 77.4% | residual activity (MAP3K10 (human)): 104% | residual activity (RPS6KA3 KD1 KD2 (human)): 35.5% | residual activity (BRSK2 (human)): 54.5% | residual activity (LTK (human)): 34.4% | residual activity (EPHA6 (human)): 29.5% | residual activity (BRSK1 (human)): 45.1% | residual activity (INSRR (human)): 21.7% | residual activity (PHKG1 (human)): 5.12% | residual activity (MAPKAPK3 (human)): 102% | residual activity (MAP4K2 (human)): 34.4% | residual activity (FGFR3 (human)): 39.7% | residual activity (PRKACA (human)): 89.1% | residual activity (MYLK2 (human)): 7.74% | residual activity (MAP2K1 (human)): 67.8% | residual activity (CSF1R (human)): 7.28% | residual activity (CAMKK2 (human)): 65.3% | residual activity (FRK (human)): 84.4% | residual activity (PIM2 (human)): 97.2% | residual activity (CLK2 (human)): 13.6% | residual activity (ACVRL1 (human)): 112% | residual activity (RPS6KA1 KD1 KD2 (human)): 28% | residual activity (LRRK2 (human)): 3.34% | residual activity (EPHB2 (human)): 72.1% | residual activity (GSK3A (human)): 85.5% | residual activity (NEK9 (human)): 100% | residual activity (MAP2K2 (human)): 25.4% | residual activity (CDC42BPA (human)): 89.5% | residual activity (STK16 (human)): 55.7% | residual activity (MAPK13 (human)): 92.4% | residual activity (MARK3 (human)): 30.4% | residual activity (DCLK2 (human)): 85% | residual activity (EPHA1 (human)): 95.1% | residual activity (BLK (human)): 28.7% | residual activity (PASK (human)): 102% | residual activity (PAK6 (human)): 107% | residual activity (DSTYK (human)): 111% | residual activity (ULK2 (human)): 40.3% | residual activity (AKT1 (human)): 105%

Nc1ncnc2c1c(-c1ccc(Oc3ccccc3)cc1)cn2C1CCCC1
residual activity (ULK1 (human)): 106% | residual activity (EPHB3 (human)): 93.4% | residual activity (MAP3K10 (human)): 82.6% | residual activity (RPS6KA3 KD1 KD2 (human)): 96.9% | residual activity (BRSK2 (human)): 98.3% | residual activity (LTK (human)): 86.3% | residual activity (CDK2 CCNA2 (human)): 104% | residual activity (EPHA6 (human)): 63.6% | residual activity (BRSK1 (human)): 99.7% | residual activity (INSRR (human)): 81.9% | residual activity (PHKG1 (human)): 91.1% | residual activity (MAPKAPK3 (human)): 109% | residual activity (MAP4K2 (human)): 89.4% | residual activity (FGFR3 (human)): 77.5% | residual activity (PRKACA (human)): 100% | residual activity (MYLK2 (human)): 92.4% | residual activity (MAP2K1 (human)): 93% | residual activity (CSF1R (human)): 61.3% | residual activity (CAMKK2 (human)): 86.3% | residual activity (FRK (human)): 6.25% | residual activity (PIM2 (human)): 110% | residual activity (CLK2 (human)): 95.2% | residual activity (ACVRL1 (human)): 95.9% | residual activity (RPS6KA1 KD1 KD2 (human)): 94.2% | residual activity (LRRK2 (human)): 86.2% | residual activity (EPHB2 (human)): 90.5% | residual activity (GSK3A (human)): 105% | residual activity (NEK9 (human)): 96.6% | residual activity (MAP2K2 (human)): 103% | residual activity (CDC42BPA (human)): 105% | residual activity (STK16 (human)): 90.7% | residual activity (MAPK13 (human)): 95.3% | residual activity (MARK3 (human)): 89.8% | residual activity (DCLK2 (human)): 99.5% | residual activity (EPHA1 (human)): 101% | residual activity (BLK (human)): 1.52% | residual activity (PASK (human)): 98.5% | residual activity (PAK6 (human)): 88.2% | residual activity (DSTYK (human)): 100% | residual activity (ULK2 (human)): 125% | residual activity (AKT1 (human)): 103%
